Source: US20260028404A1 (UNIVERSITY OF KANSAS, priority 2022, published 2026)
Entries after “also recorded” stand apart in the source; their conditions may differ.

Experiments:
[1] = system: differentially expressed genes; test: CT26 tumor RNA sequencing; type: in vivo, BALB/c mice; details: intratumoral GA treatment
Experimental: RNA isolation: RNA was isolated from the tumor as previously described. 22.83Briefly, tumor pieces were stored in RNAlater solution at room temperature for at least one day and then at 4° C. until RNA isolation. Tumor pieces were removed from RNAlater solution and homogenized in 10 mL TRIzol reagent (38% phenol, 0.8 M guanidine thiocyanate, 0.4 M ammonium thiocyanate, 0.1 M sodium acetate, 5% glycerol). Homogenate was divided into 1 mL, 100 μl BCP (Molecular Research Center #BP 151, Cincinnati, OH) was added, shaken vigorously 15 seconds and centrifuged 12,000×g, 10 minutes, 4° C. […] RNA was quantified by Qubit™ using the RNA High Sensitivity Assay Kit (Invitrogen™ #Q32852, Thermo Fisher Scientific Corporation, Eugene, OR) and RNA quality was analyzed using the Agilent 2200 TapeStation (Waldbronn, Germany).
RNA sequencing: The mRNA library preparation was performed with the NEBNext® Stranded mRNA library kit (New England Biolabs, Inc. #E7760, Ipswich, MA), tagged with a unique dual index sequence, and qPCR quantification of the library pool was performed before sequencing. Sequencing was performed on an Illumina NextSeq2000 P3 with single read 75 bp read lengths (KU Genome Sequencing Core). The reads were aligned with Mus musculus UCSC mm9 reference genome using RNA-Seq Alignment workflow (2.0.2, Illumina, San Diego, CA). […]

[2] = system: AT84 model; details: low-dose GA (300 μg) alone, previous study; cited from earlier work
[3] = biological target: Ki-67; test: Ki-67 IHC of pre- and post-treatment tumor specimens; type: in vivo, human; details: for Ki67 results, biopsy: before treatment
Experimental: Ki-67 and Caspase-3 levels: To potentially detect an early signal for anti-tumoral efficacy of Copaxone® treatment, changes in the level of Ki-67 and caspase-3 before and after treatment with Copaxone® were evaluated by IHC. FFPE tumor sections from pre-and post-treatment specimens were mounted on the same slide and stained using Caspase 3 (Biocare, Pacheco, CA) and Ki-67 (MIB-1) (Dako, Carpinteria, CA).

[4] = system: AT84 tumors; test: AT84 orthotopic head and neck tumor study; type: in vivo, C3H mice; details: intratumoral 300 μg GA, 75 μg CpG or R4 every three days x5; anti-PD-1 250 μg i.p. every three days
Description: AT84 cells were derived from a spontaneous sarcomatoid carcinoma in the oral mucosa of a C3H mouse and were graciously donated by Aldo Venuti (Regina Elena National Cancer Institute, Rome, Italy). Cells tested negative for interspecies contamination (Idexx BioResearch) and rodent pathogens (21 pathogen IMPACT I PCR profile), and negative for Mycoplasm contamination prior to animal studies (Lonza, MycoAlert test kit). Idexx CellCheck STR (short tandem repeat) profile: MCA-4-2: 20.3, 21.3; MCA-5-5: 15; MCA-6-4: 18, 19; MCA-6-7: 12; MCA-9-2: 15; MCA-12-1: 16; MCA-15-3: 25.3, 26.3; MCA-18-3: 16; MCA-X-1: 26, 27.
4% mannitol was prepared by dissolving D-mannitol (Fisher BioReagents® #M120, Fair Lawn, NJ) in molecular biology grade water (Corning #46-000, Manassas, VA) and sterile filtered through a 0.22 μm PES membrane filter (Millex®-GP #SLGPR33RS, Merck Millipore Ltd., Tullagreen, Carrigtwohill). 1 ml syringe stocks of 20 mg/mL GA (Copaxone®, TEVA Neuroscience, Inc., Overland Park, KS) were donated by The University of Kansas Medical Center. CpG ODN 1826 was purchased from InvivoGen (#tlrl-1826, San Diego, CA) and was resuspended in LAL water to obtain 3.17 mg/mL (500 μM) stocks following manufacture's protocol. All subsequent dilutions were performed using 4% mannitol. R4 polyplexes were prepared as previously described (Pressnall et al). […]

[5] = in vitro; cited from earlier work
[6] = in vivo; cited from earlier work

Glatiramer acetate [GA]
gene expression in the tumors [1]: little discernable effect on gene expression | tumor growth / tumor size [2]: significantly increased tumor growth; also recorded: increases tumor size | Ki67 results, treated ([3]; patient BCCa-Left Nasal Ala, after 2 Copaxone injections): 60% | Ki67 results, biopsy ([3]; patient BCCa-Left Nasal Ala): 65% | Ki67 results, treated ([3]; patient BCCa-Right Flank, after 3 Copaxone injections): 44% | Ki67 results, biopsy ([3]; patient BCCa-Right Flank): 62% | Ki67 results, treated ([3]; patient BCCa-Right Post. Neck, after 2 Copaxone injections): 45% | Ki67 results, biopsy ([3]; patient BCCa-Right Post. Neck): 70% | Ki67 results, treated ([3]; patient SCCa-Right Cheek, after 1 Copaxone injection): 45% | Ki67 results, biopsy ([3]; patient SCCa-Right Cheek): 55% | Ki67, marker of cell proliferation (overall) ([3]; patients, biopsy vs treated tumor): Consistent reductions in Ki67 | tumor growth [4]: no effect | aggregation in the presence of hyaluronic acid (HA) [5]: form aggregates and precipitate in the presence of HA | localization after injection [6]: primarily localized at the site of injection
